Results published in PubChem BioAssay (NCI).
Several values for one entry are separate records, joined by “and”; a condition that tells them apart may be missing. Identical values can stand only once.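 Step 1: Grow cells in 96-well plates. Step 2: Expose to compound for 48 hours at 5 concentrations. Step 3: Interpolate endpoints linearly; if unreached, use highest concentration. The concentration for 50% growth inhibition is given as GI50. Definition used: TGI = concentration required for complete inhibition of growth.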

Columns and labels:
Test in all cases: NCI tumour cell line growth inhibition, 48 h
[1] = test system: OVCAR-8 ovarian
[2] = test system: NCI-H522 lung
[3] = test system: NCI-H226 lung
[4] = test system: EKVX NSCLC
[5] = test system: COLO 205 colon
[6] = test system: CAKI-1 renal
[7] = test system: HL-60(TB) leukemia
[8] = test system: KM12 colon
[9] = test system: K-562 leukemia
[10] = test system: SF-295 CNS

Compound	GI50 [1]	TGI [1]	GI50 [2]	TGI [2]	GI50 [3]	TGI [3]	GI50 [4]	TGI [4]	GI50 [5]	TGI [5]	GI50 [6]	TGI [6]	GI50 [7]	TGI [7]	GI50 [8]	TGI [8]	GI50 [9]	TGI [9]	GI50 [10]	TGI [10]
COc1ccc(Nc2c3ccccc3nc3c2c2ccccc2n3C)cc1	57.5 µM	> 100 µM	78.3 µM	> 100 µM	27.6 µM	> 100 µM	7.91 µM	60.3 µM	15.2 µM	> 100 µM	30.7 µM	> 100 µM	3.99 µM	45.6 µM	6.61 µM	53.3 µM	5.57 µM	> 100 µM	22.3 µM	> 100 µM
COc1ccc2c(=O)c([Se]c3coc4cc(OC)ccc4c3=O)coc2c1		> 100 µM		> 100 µM		> 100 µM		> 100 µM		> 100 µM		> 100 µM		> 100 µM		> 100 µM		> 100 µM		> 100 µM
CCCCCCCCCCCCCCCCOC(=O)C(C(=O)OCCCCCCCCCCCCCCCC)[N+](C)(C)CCOC(C)=O		37.3 µM		23.3 µM		42.1 µM		43.7 µM		36 µM		30.9 µM		6.12 µM		33.8 µM		41 µM		35.4 µM
CC/C(=N\Nc1nc2ccccc2n1C)c1ccccn1	0.0929 µM	14 µM	0.0392 µM	2.33 µM	0.117 µM	1.05 µM	0.0369 µM	7.47 µM	< 0.01 µM	2.94 µM	0.113 µM	1.98 µM	0.0252 µM	0.319 µM	0.19 µM	11.3 µM	0.0102 µM	> 100 µM	0.17 µM	1.28 µM
CCCNc1nc(N(C)O)nc(N(C)O)n1	2.45 µM	> 100 µM	1.11 µM	7.3 µM	6.49 µM	> 93.6 µM	2.04 µM	> 100 µM	2.23 µM	32.2 µM	3.15 µM	43.7 µM	0.59 µM	4.56 µM	3.09 µM	> 100 µM	2.24 µM	> 100 µM	2.36 µM	> 56.2 µM
Cc1cc2c3ccccc3n(C)c2c2c1C(=O)c1ccccc1C2=O		76.2 µM		49.2 µM		30.5 µM		> 100 µM		56.1 µM		54.8 µM		27.7 µM		> 100 µM		55.1 µM		41.2 µM
CC1=C(N2CC2)C(=O)C(CO)=C(N2CC2)C1=O	0.0145 µM	0.0701 µM and 0.0799 µM	0.0112 µM	0.0385 µM and 0.0489 µM		0.166 µM		0.99 µM	0.135 µM and 0.084 µM	0.29 µM and 0.23 µM	0.00256 µM	0.412 µM and 0.243 µM	0.000498 µM	0.0104 µM	0.0356 µM	0.337 µM		1.07 µM	0.0329 µM	1.06 µM
COc1c(OC(C)=O)cc2c(OC(C)=O)c1CC(C)CC(OC)C(O)C(C)/C=C(\C)C(OC(N)=O)C(OC)/C=C\C=C(/C)C(=O)N2 (stereo not given)		> 100 µM		> 41.5 µM		> 100 µM		> 100 µM		> 100 µM		> 100 µM		> 67.5 µM		> 100 µM		> 62.6 µM		> 100 µM
COc1ccc(/C=C2/C(=O)N(C(=O)c3ccccc3O)N=C2C)cc1OC		> 100 µM		> 100 µM		40.5 µM		> 100 µM		> 95.1 µM		> 28.1 µM		> 33.6 µM		> 100 µM		> 100 µM		> 100 µM
CCN1CCN(CCOc2ccc(CNc3ccc4nc(CCC5CCCCC5)[nH]c4c3)cc2)CC1	2.45 µM	7.04 µM	2.44 µM	5.95 µM	1.99 µM	4.94 µM	2.25 µM	9.15 µM	1.76 µM	3.52 µM	2.01 µM	4.11 µM	1.87 µM	3.92 µM	2.96 µM	9.82 µM	0.42 µM	2.69 µM	1.99 µM	3.95 µM
O=C(Oc1cccnc1)c1ccccc1Nc1ccnc(C(F)(F)F)c1	0.413 µM	> 100 µM	0.402 µM	> 100 µM	0.552 µM	29.3 µM	6.15 µM	46.4 µM	0.156 µM	0.363 µM	0.0525 µM	46.9 µM	43.3 µM	> 100 µM	0.169 µM	2.72 µM	0.0426 µM	> 100 µM	0.257 µM	0.707 µM
Cn1cc(-c2csc(-c3c[nH]c4ncccc34)n2)c2cc(Br)cnc21	3.72 µM	> 100 µM	4.86 µM	> 100 µM	1.97 µM	> 100 µM	1.27 µM	> 100 µM			1.56 µM	> 100 µM	> 100 µM	> 100 µM	5.7 µM	> 100 µM	8.76 µM	> 100 µM	3.01 µM	18.8 µM
Oc1nc(NCCc2ccccc2)sc1/C=C1\C=Nc2ncccc21	2.91 µM and 3.12 µM	13.4 µM and 14.8 µM	1.43 µM and 1.39 µM	12.1 µM and 11.6 µM	2.99 µM and 3.27 µM	14.3 µM and 16.1 µM	3.18 µM and 3.52 µM	29.6 µM and 26.9 µM	1.93 µM and 2.96 µM	5.95 µM and 11 µM	2.61 µM and 5.34 µM	14 µM and > 100 µM	2.34 µM and 2.14 µM	6.48 µM and 6.88 µM	2.69 µM and 2.71 µM	9.91 µM and 13 µM	4.12 µM and 4.7 µM	20 µM and 79.6 µM	3.32 µM and 3.14 µM	13.2 µM and 23.6 µM
O=C(CCCn1c2c(sc3ncccc32)c(=O)n2nnc(-c3ccccc3)c12)NCCc1cnc[nH]1	0.0952 µM	17.3 µM	2.95 µM	23 µM	11.7 µM	29.3 µM	15.2 µM	44.5 µM	6.28 µM	23.5 µM	2.89 µM	14.4 µM	1.41 µM	4.76 µM	1.89 µM	24 µM	0.31 µM	15.6 µM	1.75 µM	16.3 µM
O=C(c1cc2ccccc2[nH]1)C(O)(c1cc2ccccc2[nH]1)c1cc2ccccc2[nH]1		> 246 µM		> 246 µM		> 246 µM		> 246 µM		> 246 µM		> 246 µM		> 246 µM		> 246 µM		> 246 µM		> 246 µM
